From patent US20110053969A1, “NOVEL DIAZASIPIROAKANES AND THEIR USE FOR TREATMENT OF CCR8 MEDIATED DISEASES” (ASTRAZENECA AB, priority 2005, published 2011)
Where a name gives a salt, the structure may show the parent alone.

Columns and labels:
[1] = biological target: T1, human recombinant chemokine CCR8 receptor (Homo sapiens, UniProt P51685); assay: CCL1 SPA binding assay; settings: inhibition of 125I CCL1 binding to membranes from CHO-K1 cells transfected with human CCR8
T1 construct: purchased Euroscreen ES-136-M; host or cells: CHO-K1 cells (transfected), membrane preparation
T1 sequence (P51685 whole entry): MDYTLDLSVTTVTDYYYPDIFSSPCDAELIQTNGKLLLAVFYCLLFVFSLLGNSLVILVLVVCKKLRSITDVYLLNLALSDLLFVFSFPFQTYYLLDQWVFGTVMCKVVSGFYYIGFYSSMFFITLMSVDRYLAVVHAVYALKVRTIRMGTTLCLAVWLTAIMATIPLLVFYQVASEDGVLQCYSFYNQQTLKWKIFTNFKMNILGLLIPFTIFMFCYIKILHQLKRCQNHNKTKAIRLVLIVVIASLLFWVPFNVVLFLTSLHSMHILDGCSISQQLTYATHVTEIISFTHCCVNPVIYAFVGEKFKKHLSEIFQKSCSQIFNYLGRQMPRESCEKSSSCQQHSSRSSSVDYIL
Protocol: Membranes from CHO-K1 cells transfected with human recombinant chemokine CCR8 receptor (ES-136-M) were purchased from Euroscreen. Membrane preparations are stored at −70 C in 7.5 mM Tris-Cl pH 7.5, 12.5 mM MgCl2, 0.3 mM EDTA, 1 mM EGTA, 250 mM sucrose until used.
The CCR8 membranes (50.6 mg/ml) were preincubated with Wheat Germ Agglutinin SPA beads (4.05 mg/ml) in assay buffer (50 mM HEPES, 1 mM CaCl2x2H2O, 5 mM MgCl2x6H2O, 75 mM NaCl, 0.1% BSA) at pH=7.4 for 2 hours on ice. A 10-point dose-response curve (final concentrations 50 μM, 16.7 μM, 5.6 μM, 1.9 μM, 0.62 μM, 0.21 μM, 0.069 μM, 0.023 μM) was prepared by diluting compounds by serial dilution 1:3 in DMSO. In the screening plate (Polystyrene NBS plates, Costar Corning 3604) 1 μl from the DMSO solutions of compounds was transferred into each well. 1 μl of DMSO was added to the blank control wells and 1 μl unlabeled CCL1 (300 nM) was added to background control wells. 50 μl of the SPA bead-membrane mixture was added into each well. Finally, 50 μl. ([…]) ^125I CCL1 (2000 Ci/mM) was added to each well. Plates were then incubated at RT with shaking (700 rpm) for 90 minutes followed by 30 minutes at RT without shaking. The plate was read in a Wallac MicroBeta counter for 2 minutes/well.

[2] = Human microsomal stability assay; assay type: in vitro ADME; settings: human microsomes (Xenotech), 1 mg microsomal protein/mL, 2.5 μM compound, 2 mM NADPH, pH 7.4, 37° C., read-out: Human Microsomal Stability (intrinsic Clearance, CLint)
Protocol: Human Microsomal Stability Assay
The assay is run in a 96-deepwell format at 1 mg microsomal protein (Xenotech)/mL in potassium phosphate buffer (pH 7.4) with a compound concentration of 2.5 μM and a NADPH concentration of 2 mM. Samples at four time-points (0, 5, 15 and 30 minutes) are withdrawn and the enzymatic reaction is terminated by protein precipitation with 1% acetic acid in acetonitrile. The incubations are performed on a thermostated plate (37° C.) placed on a Tecan worktable, and all liquid handling was performed robotically. After centrifugation of the samples, the supernatants are pooled in sets of four before they are analysed by liquid chromatography with tandem mass spectrometry detection (LC/MS/MS) using multiple reaction monitoring (MRM). Data are presented as intrinsic Clearance (CLint), μl/min/mg protein, calculated from the initial linear part of the compound disappearance curve.

| Structure (SMILES) | IC50 [1] | microsomal CLint at 2.5 μM [2] |
| --- | --- | --- |
| CC(C)COc1ccccc1CN1CCC2(CC1)CCN(C(=O)c1ccc[nH]c1=O)CC2 [A, 3-{[9-(2-isobutoxybenzyl)-3,9-diazaspiro[5.5]undec-3-yl]carbonyl}pyridin-2(1H)-one, reference compound] | 1950 nM |  |
| CC(C)COc1ccccc1CN1CCC2(CC1)CCN(C(=O)c1ccc(=O)[nH]c1)CC2 [B, 5-{[9-(2-isobutoxybenzyl)-3,9-diazaspiro[5.5]undec-3-yl]carbonyl}pyridin-2(1H)-one, reference compound] | 1900 nM |  |
| COc1ccccc1Oc1ccccc1CN1CCC2(CC1)CCN(C(=O)c1ccc[nH]c1=O)CC2 [Example 2, 3-({9-[2-(2-methoxyphenoxy)benzyl]-3,9-diazaspiro[5.5]undec-3-yl}carbonyl)pyridin-2(1H)-one] | 62 nM | < 10 µL/min/mg |
| COc1ccccc1Oc1ccccc1CN1CCC2(CC1)CCN(C(=O)c1ccc(=O)[nH]c1C(F)(F)F)CC2 [Example 3, 5-({9-[2-(2-methoxyphenoxy)benzyl]-3,9-diazaspiro[5.5]undec-3-yl}carbonyl)-6-(trifluoromethyl)pyridin-2(1H)-one trifluoroacetate] | 83 nM | < 10 µL/min/mg |
| COc1ccccc1Oc1cccc(CN2CCC3(CC2)CCN(C(=O)c2ccc[nH]c2=O)CC3)c1 [Example 4, 3-({9-[3-(2-methoxyphenoxy)benzyl]-3,9-diazaspiro[5.5]undec-3-yl}carbonyl)pyridin-2(1H)-one] | 15 nM | 21.7 µL/min/mg |
